Values quoted from earlier work as cited in US20170196794A1, “Oral Composition” (Kao Corporation, priority 2014, published 2017).

Details: 20° C.

Compound	solubility in water
OC[C@@H](O)[C@@H](O[C@H]1O[C@H](CO)[C@@H](O)[C@H](O)[C@H]1O)[C@H](O)[C@@H](O)CO [maltitol]	60 % by mass
OC[C@@H](O)[C@@H](O)[C@H](O)[C@@H](O)CO [sorbitol]	72 % by mass
OC[C@@H](O)[C@@H](O)[C@H](O)[C@H](O)CO [mannitol]	18 % by mass

The remaining lines, values ahead:

solubility in water	Compound
33 % by mass	OC[C@@H](O)[C@@H](O)CO [erythritol]
66 % by mass	OC[C@@H](O)[C@H](O)[C@@H](O)CO [xylitol]
